# Patent US20090270478A1, “ION CHANNEL MODULATING ACTIVITY II” (CARDIOME PHARMA CORP., priority 2000, published 2009)
# Columns and labels:
# hH1 sodium channel = target: T1, hH1 sodium channel (Homo sapiens, UniProt Q14524); assay: Inactivated state inhibition of hH1 sodium channel current (prepulse protocol); format: cell-based
# T1 construct: expressed in transfected cells
# [1] = target: human heart sodium channel (hH1) (Homo sapiens, UniProt Q14524); format: cell-based
# [2] = tested on: isolated rabbit Purkinje fibers; details: 100 μM lidocaine, 300 nM dofetilide
# Sequence of human heart sodium channel (hH1) (Q14524 whole entry, looked up): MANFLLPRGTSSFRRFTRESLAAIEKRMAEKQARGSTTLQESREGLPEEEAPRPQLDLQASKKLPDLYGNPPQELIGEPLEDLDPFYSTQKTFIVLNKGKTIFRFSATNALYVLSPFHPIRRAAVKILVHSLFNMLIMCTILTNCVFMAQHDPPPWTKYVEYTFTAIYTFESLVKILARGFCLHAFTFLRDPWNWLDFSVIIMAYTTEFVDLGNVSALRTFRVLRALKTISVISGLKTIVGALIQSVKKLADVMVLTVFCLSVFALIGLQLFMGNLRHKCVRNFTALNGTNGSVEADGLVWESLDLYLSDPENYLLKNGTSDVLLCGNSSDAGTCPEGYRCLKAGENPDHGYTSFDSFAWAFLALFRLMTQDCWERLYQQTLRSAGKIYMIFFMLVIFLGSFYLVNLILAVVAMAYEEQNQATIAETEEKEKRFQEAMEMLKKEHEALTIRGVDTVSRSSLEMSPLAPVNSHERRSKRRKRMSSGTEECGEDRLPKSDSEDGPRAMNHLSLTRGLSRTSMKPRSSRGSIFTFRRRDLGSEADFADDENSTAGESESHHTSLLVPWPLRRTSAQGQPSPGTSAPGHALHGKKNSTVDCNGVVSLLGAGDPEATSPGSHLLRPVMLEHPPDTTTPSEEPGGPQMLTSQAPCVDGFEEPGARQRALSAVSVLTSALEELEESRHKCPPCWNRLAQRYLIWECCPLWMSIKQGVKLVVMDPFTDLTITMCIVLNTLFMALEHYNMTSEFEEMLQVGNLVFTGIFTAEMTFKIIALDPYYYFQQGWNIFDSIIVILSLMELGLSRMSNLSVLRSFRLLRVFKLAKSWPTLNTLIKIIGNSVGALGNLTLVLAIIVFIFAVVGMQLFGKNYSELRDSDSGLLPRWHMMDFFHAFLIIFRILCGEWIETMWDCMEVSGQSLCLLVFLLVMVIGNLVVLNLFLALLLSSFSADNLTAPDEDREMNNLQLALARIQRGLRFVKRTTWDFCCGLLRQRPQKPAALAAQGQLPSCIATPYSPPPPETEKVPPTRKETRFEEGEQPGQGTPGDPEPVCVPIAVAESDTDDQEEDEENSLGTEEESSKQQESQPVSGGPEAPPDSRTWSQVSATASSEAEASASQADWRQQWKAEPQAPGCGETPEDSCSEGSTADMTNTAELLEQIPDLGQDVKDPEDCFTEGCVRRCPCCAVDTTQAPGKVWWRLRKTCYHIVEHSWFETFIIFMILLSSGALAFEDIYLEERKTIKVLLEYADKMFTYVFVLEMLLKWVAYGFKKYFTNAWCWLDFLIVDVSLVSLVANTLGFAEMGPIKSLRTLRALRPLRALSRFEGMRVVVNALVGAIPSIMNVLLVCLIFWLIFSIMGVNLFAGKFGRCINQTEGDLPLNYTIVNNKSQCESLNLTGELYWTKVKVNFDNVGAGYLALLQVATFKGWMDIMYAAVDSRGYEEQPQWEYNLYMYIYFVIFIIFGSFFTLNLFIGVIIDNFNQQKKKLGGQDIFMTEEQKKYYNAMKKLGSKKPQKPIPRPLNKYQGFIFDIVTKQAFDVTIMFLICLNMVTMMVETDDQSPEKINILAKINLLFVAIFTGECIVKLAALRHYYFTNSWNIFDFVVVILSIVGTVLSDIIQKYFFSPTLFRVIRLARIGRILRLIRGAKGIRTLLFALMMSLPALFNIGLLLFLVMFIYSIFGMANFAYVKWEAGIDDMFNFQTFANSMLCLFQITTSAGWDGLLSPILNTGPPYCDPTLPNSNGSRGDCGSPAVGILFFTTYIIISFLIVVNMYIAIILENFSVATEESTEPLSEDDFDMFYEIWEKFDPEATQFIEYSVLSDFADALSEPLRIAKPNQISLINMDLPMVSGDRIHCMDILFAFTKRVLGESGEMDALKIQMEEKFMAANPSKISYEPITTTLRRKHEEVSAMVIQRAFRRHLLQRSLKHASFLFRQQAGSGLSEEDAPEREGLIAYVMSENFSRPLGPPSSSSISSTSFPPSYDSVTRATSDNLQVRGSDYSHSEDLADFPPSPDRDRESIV
# T1 sequence (Q14524 whole entry): as the sequence (Q14524 whole entry, looked up) above
smiles,measurement,setting,value
CCN(CC)CC(=O)Nc1c(C)cccc1C [lidocaine],inhibition of hH1 with longer prepulses (inactivated state inhibition),hH1 sodium channel,produced enhanced inhibition when prepulses of longer duration were applied
same,"block of early TTX-sensitive sodium current, Iearly(TTX)",[1],41±2.7%
same,"block of late TTX-sensitive sodium current, Ilate(TTX)",[1],73±2.8%
same,"block of sustained TTX-sensitive sodium current, Isus(TTX)",[1],70±2.5%
same,termination of dofetilide-induced EADs,[2],terminated dofetilide-induced (300 nM) EADs
